Measurements taken from patent publication US9120791B2, “Indolizine compounds, a process for their preparation and pharmaceutical compositions containing them” (LES LABORATOIRES SERVIER, priority 2012, dated 2015).
Counter-ions that a name gives are not always drawn. Like-named read-outs stand apart in the source and are kept apart here.

Tests used:
[1] = system: RS4;11 leukaemia tumour line; test: In vitro cytotoxicity (Microculture Tetrazolium Assay, 48 hours); assay type: cell-based; conditions: RS4;11 cells, 48 hours exposure, MTT, concentration that inhibits cell viability by 50%, read-out: IC50 (nM) MTT RS4
Procedure: The cytotoxicity studies were carried out on the RS4;11 leukaemia tumour line.
The cells are distributed onto microplates and exposed to the test compounds for 48 hours.

[2] = target: Bcl-2 protein (Homo sapiens (Human), UniProt P10415); test: Inhibition of Bcl-2 by the fluorescence polarisation technique; assay type: binding; conditions: read-out: IC50 (nM) Bcl-2 FP
Chain of Bcl-2 protein (P10415 whole entry): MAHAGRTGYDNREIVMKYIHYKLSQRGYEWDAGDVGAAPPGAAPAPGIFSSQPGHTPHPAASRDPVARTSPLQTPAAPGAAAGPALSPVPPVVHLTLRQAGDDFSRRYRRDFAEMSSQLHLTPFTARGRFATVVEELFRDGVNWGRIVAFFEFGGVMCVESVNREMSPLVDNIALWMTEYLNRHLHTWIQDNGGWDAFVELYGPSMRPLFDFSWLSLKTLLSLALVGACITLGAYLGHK
Procedure: The fluorescence polarisation tests were carried out on microplates (384 wells). […] After incubation for 2 hours, the fluorescence polarisation is measured.

[3] = fluorescence polarisation test, concentration that inhibits fluorescence polarisation by 50%

O=C(c1cc(-c2cc3c(cc2C(=O)N2Cc4ccccc4C[C@H]2CN2CCOCC2)OCO3)n2c1CC(O)CC2)N(c1ccccc1)c1ccc(O)cc1 (stereo partly drawn) [Example 113, 7-Hydroxy-N-(4-hydroxyphenyl)-3-(6-{[(3S)-3-(morpholin-4-ylmethyl)-3,4-dihydroisoquinolin-2(1H)-yl]carbonyl}-1,3-benzodioxol-5-yl)-N-phenyl-5,6,7,8-tetrahydroindolizine-1-carboxamide hydrochloride]
IC50 ([1]; Homo sapiens): 190 nM
IC50 [2, 3]: 16 nM

COc1ccc(C(=O)N2Cc3ccccc3C[C@H]2CN2CCOCC2)c(-c2cc(C(=O)N(c3ccc(O)cc3)c3ccc(C)c(F)c3)c3n2CCCC3)c1 [Example 114, N-(3-Fluoro-4-methylphenyl)-N-(4-hydroxyphenyl)-3-(5-methoxy-2-{[(3S)-3-(morpholin-4-ylmethyl)-3,4-dihydroisoquinolin-2(1H)-yl]carbonyl}phenyl)-5,6,7,8-tetrahydroindolizine-1-carboxamide hydrochloride]
IC50 ([1]; Homo sapiens): 43.1 nM
IC50 [2, 3]: 9 nM

Cn1ccc2cc(N(C(=O)c3cc(-c4cc(OC(F)(F)F)ccc4C(=O)N4Cc5ccccc5C[C@H]4CN4CCOCC4)n4c3CCCC4)c3ccc(O)cc3)ccc21 [Example 48, N-(4-Hydroxyphenyl)-N-(1-methyl-1H-indol-5-yl)-3-[2-[((3S)-3-(4-morpholinylmethyl)-3,4-dihydro-2(1H)-isoquinolinyl)carbonyl]-5-(trifluoromethoxy)-phenyl]-5,6,7,8-tetrahydro-1-indolizine carboxamide hydrochloride]
IC50 ([1]; Homo sapiens): 229 nM
IC50 [2, 3]: 130 nM

COc1ccc(N(C(=O)c2cc(-c3cc(Cl)ccc3C(=O)N3Cc4ccccc4C[C@H]3CN3CCOCC3)n3c2CCCC3)c2ccc(O)cc2)cc1C(F)(F)F [Example 53, 3-{5-Chloro-2-[((3S)-3-(4-morpholinylmethyl)-3,4-dihydro-2(1H)-isoquinolinyl)carbonyl]phenyl}-N-(4-hydroxyphenyl)-N-[4-methoxy-3-(trifluoro-methyl)phenyl]-5,6,7,8-tetrahydro-1-indolizine carboxamide hydrochloride]
IC50 ([1]; Homo sapiens): 138 nM
IC50 [2, 3]: 180 nM

C[C@@H]1COCCN1C[C@@H]1Cc2ccccc2CN1C(=O)c1cc2c(cc1-c1cc(C(=O)N(c3ccc(O)cc3)c3ccc4c(ccn4C)c3)c3n1CCCC3)OCO2 [Example 15, N-(4-Hydroxyphenyl)-N-(1-methyl-1H-indol-5-yl)-3-{6-[((3S)-3-{[(3R)-3-methylmorpholinyl]methyl}-3,4-dihydro-2(1H)-isoquinolinyl)carbonyl]-1,3-benzodioxol-5-yl}-5,6,7,8-tetrahydro-1-indolizine carboxamide hydrochloride]
IC50 [1]: 20.4 nM
IC50 [2]: 17 nM

O=C(c1cc(-c2cc3c(cc2C(=O)N2Cc4ccccc4C[C@H]2C[N+]2([O-])CCOCC2)OCO3)n2c1CCCC2)N(c1ccccc1)c1ccc(O)cc1 [Example 109, N-(4-Hydroxyphenyl)-3-(6-{[(3S)-3-[(4-oxidomorpholin-4-yl)methyl]-3,4-dihydroisoquinolin-2(1H)-yl]carbonyl}-1,3-benzodioxol-5-yl)-N-phenyl-5,6,7,8-tetrahydroindolizine-1-carboxamide]
IC50 ([1]; Homo sapiens): 483 nM
IC50 [2, 3]: 30 nM

CN1CCCc2cc(N(C(=O)c3cc(-c4cc(Cl)ccc4C(=O)N4Cc5ccccc5C[C@H]4CN4CCOCC4)n4c3CCCC4)c3ccc(O)cc3)ccc21 [Example 26, 3-{5-Chloro-2-[((3S)-3-(4-morpholinylmethyl)-3,4-dihydro-2(1H)-isoquinolinyl)carbonyl]phenyl}-N-(4-hydroxyphenyl)-N-(1-methyl-1,2,3,4-tetrahydro-6-quinolinyl)-5,6,7,8-tetrahydro-1-indolizine carboxamide hydrochloride]
IC50 ([1]; Homo sapiens): 40 nM
IC50 [2, 3]: 17 nM

Cn1ccc2cc(N(C(=O)c3cc(-c4cc5c(cc4C(=O)N4Cc6ccccc6C[C@H]4CN4CCOCC4)OCCCO5)n4c3CCCC4)c3ccc(O)cc3)ccc21 [Example 32, N-(4-Hydroxyphenyl)-N-(1-methyl-1H-indol-5-yl)-3-{8-[((3S)-3-(4-morpholinylmethyl)-3,4-dihydro-2(1H)-isoquinolinyl)carbonyl]-3,4-dihydro-2H-1,5-benzodioxepin-7-yl}-5,6,7,8-tetrahydro-1-indolizine carboxamide hydrochloride]
IC50 ([1]; Homo sapiens): 71.3 nM
IC50 [2, 3]: 34 nM

COCCN(C)C[C@@H]1Cc2ccccc2CN1C(=O)c1ccc(Cl)cc1-c1cc(C(=O)N(c2ccc(O)cc2)c2ccc3c(ccn3C)c2)c2n1CCCC2 [Example 108, 3-(5-Chloro-2-{[(3S)-3-{[(2-methoxyethyl)(methyl)amino]methyl}-3,4-dihydroisoquinolin-2(1H)-yl]carbonyl}phenyl)-N-(4-hydroxyphenyl)-N-(1-methyl-1H-indol-5-yl)-5,6,7,8-tetrahydroindolizine-1-carboxamide hydrochloride]
IC50 ([1]; Homo sapiens): 36.4 nM
IC50 [2, 3]: 9 nM

COc1ccc(C(=O)N2Cc3ccccc3C[C@H]2CN2CCOCC2)c(-c2cc(C(=O)N(c3ccccc3)c3ccc(O)cc3)c3n2CCCC3)c1 [Example 112, N-(4-Hydroxyphenyl)-3-(5-methoxy-2-{[(3S)-3-(morpholin-4-ylmethyl)-3,4-dihydroisoquinolin-2(1H)-yl]carbonyl}phenyl)-N-phenyl-5,6,7,8-tetrahydroindolizine-1-carboxamide hydrochloride]
IC50 ([1]; Homo sapiens): 139 nM
IC50 [2, 3]: 9 nM

CCN(CCOC)C[C@@H]1Cc2ccccc2CN1C(=O)c1ccc(Cl)cc1-c1cc(C(=O)N(c2ccc(O)cc2)c2ccc3c(ccn3C)c2)c2n1CCCC2 [Example 110, 3-(5-Chloro-2-{[(3S)-3-{[ethyl(2-methoxyethyl)amino]methyl}-3,4-dihydroisoquinolin-2(1H)-yl]carbonyl}phenyl)-N-(4-hydroxyphenyl)-N-(1-methyl-1H-indol-5-yl)-5,6,7,8-tetrahydroindolizine-1-carboxamide hydrochloride]
IC50 ([1]; Homo sapiens): 129 nM
IC50 [2, 3]: 29 nM

Cn1ccc2cc(N(C(=O)c3cc(-c4cc5c(cc4C(=O)N4Cc6ccccc6C[C@H]4CN4CCOCC4)OCCO5)n4ccccc34)c3ccc(O)cc3)ccc21 [Example 70, N-(4-Hydroxyphenyl)-N-(1-methyl-1H-indol-5-yl)-3-{7-[((3S)-3-(4-morpholinylmethyl)-3,4-dihydro-2(1H)-isoquinolinyl)carbonyl]-2,3-dihydro-1,4-benzodioxin-6-yl}-1-indolizine carboxamide hydrochloride]
IC50 ([1]; Homo sapiens): 14 nM
IC50 [2, 3]: 19 nM

Cc1ccc(C(=O)N2Cc3ccccc3C[C@H]2CN2CCOCC2)c(-c2cc(C(=O)N(c3ccc(O)cc3)c3ccc4c(ccn4C)c3)c3n2CCCC3)c1 [Example 95, N-(4-Hydroxyphenyl)-N-(1-methyl-1H-indol-5-yl)-3-(5-methyl-2-{[(3S)-3-(morpholin-4-ylmethyl)-3,4-dihydroisoquinolin-2(1H)-yl]carbonyl}phenyl)-5,6,7,8-tetrahydroindolizine-1-carboxamide hydrochloride]
IC50 ([1]; Homo sapiens): 13.5 nM
IC50 [2, 3]: 6 nM

CN1CCN(C[C@@H]2Cc3ccccc3CN2C(=O)c2cc3c(cc2-c2cc(C(=O)N(c4ccc(O)cc4)c4ccc5c(ccn5C)c4)c4ccccn24)OCO3)CC1 [Example 57, N-(4-Hydroxyphenyl)-N-(1-methyl-1H-indol-5-yl)-3-{6-[((3S)-3-[(4-methyl-1-piperazinyl)methyl]-3,4-dihydro-2(1H)-isoquinolinyl)carbonyl]-1,3-benzodioxol-5-yl}-1-indolizine carboxamide bis(hydrochloride)]
IC50 ([1]; Homo sapiens): 8.62 nM
IC50 [2, 3]: 12 nM

N#Cc1ccc(N(C(=O)c2cc(-c3cc(Cl)ccc3C(=O)N3Cc4ccccc4C[C@H]3CN3CCOCC3)n3c2CCCC3)c2ccc(O)cc2)cc1 [Example 129, 3-(5-Chloro-2-{[(3S)-3-(morpholin-4-ylmethyl)-3,4-dihydroisoquinolin-2(1H)-yl]carbonyl}phenyl)-N-(4-cyanophenyl)-N-(4-hydroxyphenyl)-5,6,7,8-tetrahydroindolizine-1-carboxamide hydrochloride]
IC50 ([1]; Homo sapiens): 46.7 nM
IC50 [2, 3]: 9 nM

CN(C)C[C@@H]1Cc2ccccc2CN1C(=O)c1ccc(Cl)cc1-c1cc(C(=O)N(c2ccc(O)cc2)c2ccc3c(ccn3C)c2)c2n1CCCC2 [Example 52, 3-{5-Chloro-2-[((3S)-3-[(dimethylamino)methyl]-3,4-dihydro-2(1H)-isoquinolinyl)carbonyl]phenyl}-N-(4-hydroxyphenyl)-N-(1-methyl-1H-indol-5-yl)-5,6,7,8-tetrahydro-1-indolizine carboxamide hydrochloride]
IC50 ([1]; Homo sapiens): 19.8 nM
IC50 [2, 3]: 16 nM

CN1CCN(C[C@@H]2Cc3ccccc3CN2C(=O)c2cc3c(cc2-c2cc(C(=O)N(c4ccc(O)cc4)c4ccc5c(ccn5C)c4)c4n2CCC4)OCO3)CC1 [Example 76, N-(4-Hydroxyphenyl)-N-(1-methyl-1H-indol-5-yl)-5-{6-[((3S)-3-[(4-methyl-1-piperazinyl)methyl]-3,4-dihydro-2(1H)-isoquinolinyl)carbonyl]-1,3-benzodioxol-5-yl}-2,3-dihydro-1H-pyrrolizine-7-carboxamide bis(hydrochloride)]
IC50 ([1]; Homo sapiens): 49 nM
IC50 [2, 3]: 17 nM

Cn1ncc2cc(N(C(=O)c3cc(-c4cc(Cl)ccc4C(=O)N4Cc5ccccc5C[C@H]4CN4CCOCC4)n4c3CCCC4)c3ccc(O)cc3)ccc21 [Example 42, 3-{5-Chloro-2-[((3S)-3-(4-morpholinylmethyl)-3,4-dihydro-2(1H)-isoquinolinyl)carbonyl]phenyl}-N-(4-hydroxyphenyl)-N-(1-methyl-1H-indazol-5-yl)-5,6,7,8-tetrahydro-1-indolizine carboxamide hydrochloride]
IC50 ([1]; Homo sapiens): 53.6 nM
IC50 [2, 3]: 13 nM
